Measured values reported in patent US20220280644A1, “"TRPswitch" - A STEP FUNCTION CHEMO-OPTOGENETIC LIGAND” (UNIVERSITY OF UTAH RESEARCH FOUNDATION, priority 2019, published 2022).

Columns and labels:
[1] = molecular target: T1, endogenous human TRPA1 (Homo sapiens, UniProt O75762); test: Whole cell current in untransfected CCD-18Co cells; format: cell-based; details: untransfected CCD-18Co
T1 construct: human colonic fibroblast cells, CCD-18Co, which express human TRPA1 endogenously; endogenous in cells; host or cells: CCD-18Co (ATCC), untransfected
T1 sequence (O75762 whole entry): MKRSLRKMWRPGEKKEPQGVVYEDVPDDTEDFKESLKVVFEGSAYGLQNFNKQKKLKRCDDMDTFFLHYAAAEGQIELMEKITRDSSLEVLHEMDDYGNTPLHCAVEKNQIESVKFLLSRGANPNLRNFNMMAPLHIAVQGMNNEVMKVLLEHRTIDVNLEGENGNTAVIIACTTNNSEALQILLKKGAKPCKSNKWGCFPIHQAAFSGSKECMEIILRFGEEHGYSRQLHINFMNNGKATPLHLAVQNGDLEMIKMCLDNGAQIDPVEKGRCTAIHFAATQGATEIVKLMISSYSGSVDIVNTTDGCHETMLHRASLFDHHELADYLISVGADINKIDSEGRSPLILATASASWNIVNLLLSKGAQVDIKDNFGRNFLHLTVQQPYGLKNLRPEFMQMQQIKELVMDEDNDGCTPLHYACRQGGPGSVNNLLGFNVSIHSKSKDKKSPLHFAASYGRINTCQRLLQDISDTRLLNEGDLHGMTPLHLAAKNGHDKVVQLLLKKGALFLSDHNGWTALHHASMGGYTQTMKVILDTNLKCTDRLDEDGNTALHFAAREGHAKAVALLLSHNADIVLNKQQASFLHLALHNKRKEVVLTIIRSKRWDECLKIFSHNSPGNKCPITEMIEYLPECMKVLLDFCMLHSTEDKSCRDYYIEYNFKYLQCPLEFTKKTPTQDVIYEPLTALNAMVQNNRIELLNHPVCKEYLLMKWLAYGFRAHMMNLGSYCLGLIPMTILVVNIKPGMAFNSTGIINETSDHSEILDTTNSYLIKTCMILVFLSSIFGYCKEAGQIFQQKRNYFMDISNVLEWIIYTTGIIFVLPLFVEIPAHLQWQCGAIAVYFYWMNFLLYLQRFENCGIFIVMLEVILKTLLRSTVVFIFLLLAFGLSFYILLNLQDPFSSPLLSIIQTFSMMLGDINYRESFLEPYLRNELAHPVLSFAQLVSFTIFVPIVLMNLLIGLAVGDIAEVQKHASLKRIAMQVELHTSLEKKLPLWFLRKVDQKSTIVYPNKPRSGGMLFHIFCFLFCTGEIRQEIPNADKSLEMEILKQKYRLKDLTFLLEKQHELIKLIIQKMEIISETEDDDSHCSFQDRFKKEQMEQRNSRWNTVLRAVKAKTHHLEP
Protocol: Immortalized HEK293T cells or human colonic fibroblast cells (CCD-18Co; ATCC) were used. HEK293T cells were plated on […] cover slips and transiently transfected with 10 μg of Trpa1b plasmid (pCMV-zTrpa1b-FLAG) (SEQ ID NO:3) and 5 μg of mNeonGreen cDNA (Allele Biotechnology), then grown in a 6 cm plate for 24-48 h. CCD-18Co were cultured in Eagle's minimal essential medium with 10% FBS, 1× penicillin and streptomycin. CCD-18Co cells were plated on 12 mm cover slips and transiently transfected with 5 μg of zTrpa1b plasmid (pCMV-zTrpa1b-FLAG) together with 5 μg of mNeonGreen cDNA (Allele Biotechnology), then grown in a […] plate for 48-72 h. After this time, the cover slips were transferred to a recording chamber containing an extracellular solution composed of 145 mM sodium gluconate, 4 mM KCl, 3 mM MgCl2, 10 mM D-glucose, 10 mM HEPES; pH 7.4 adjusted with NaOH. The internal solution contained 122 mM cesium methane sulfonate, 1.8 mM MgCl2, 9 mM EGTA, 14 mM creatine phosphate (sodium salt), 4 mM Mg-ATP, 0.3 mM Na-GTP, 10 mM HEPES, pH 7.2 adjusted with CsOH. […] Whole cell currents were measured on an Axopatch 200B amplifier (Molecular De-vices) under the control of pClamp software. […] Basal Trpa1b whole cell currents were measured with a ramp protocol (˜100 to +100 mV, at a holding potential of 0 mV). […] The p values were calculated using a two-tailed, paired Student's t-test.

[2] = tested on: zebrafish Trpa1b; test: Whole-cell patch-clamp of HEK293T cells expressing zebrafish Trpa1b; format: cell-based
Protocol: Immortalized HEK293T cells or human colonic fibroblast cells (CCD-18Co; ATCC) were used. HEK293T cells were plated on […] cover slips and transiently transfected with 10 μg of Trpa1b plasmid (pCMV-zTrpa1b-FLAG) (SEQ ID NO:3) and 5 μg of mNeonGreen cDNA (Allele Biotechnology), then grown in a 6 cm plate for 24-48 h. CCD-18Co were cultured in Eagle's minimal essential medium with 10% FBS, 1× penicillin and streptomycin. CCD-18Co cells were plated on 12 mm cover slips and transiently transfected with 5 μg of zTrpa1b plasmid (pCMV-zTrpa1b-FLAG) together with 5 μg of mNeonGreen cDNA (Allele Biotechnology), then grown in a […] plate for 48-72 h. After this time, the cover slips were transferred to a recording chamber containing an extracellular solution composed of 145 mM sodium gluconate, 4 mM KCl, 3 mM MgCl2, 10 mM D-glucose, 10 mM HEPES; pH 7.4 adjusted with NaOH. The internal solution contained 122 mM cesium methane sulfonate, 1.8 mM MgCl2, 9 mM EGTA, 14 mM creatine phosphate (sodium salt), 4 mM Mg-ATP, 0.3 mM Na-GTP, 10 mM HEPES, pH 7.2 adjusted with CsOH. Borosilicate glass pipettes with a resistance of 3-5 MO were used. Whole cell currents were measured on an Axopatch 200B amplifier (Molecular De-vices) under the control of pClamp software. Signals were digitized through a Digidata1550B interface (Molecular Devices). Currents were filtered at 5 kHz (lowpass, Bessel) and sampled at 10 kHz prior to analysis with Clampfit software (Molecular Devices). All the plots and statistical tests were performed on Excel (Microsoft corp.). Basal Trpa1b whole cell currents were measured with a ramp protocol (˜100 to +100 mV, at a holding potential of 0 mV). Photoactive compounds were perfused into the recording chamber and a fluorescent light generated by mercury vapor short arc (U-HGLGPS, OLYMPUS) filtered through an ET-ECFP 434/17 nm filter and through a ET-mCherry 560 nm filter (Chroma Technology) was switched “on” and “off” for 10 s. All experiments were performed at room temperature. The p values were calculated using a two-tailed, paired Student's t-test.

[3] = Photostationary state (PSS) determination; format: physicochemical; details: for 365 nm PSS / 420 nm PSS / 495 nm PSS: estimated, UV/Vis spectroscopy in DMSO
From the text: […] In the latter case, the pure Z isomer spectrum was estimated using methods described in previous publications.

[4] = tested on: wild-type zebrafish larvae; test: Behavioral assay: light-induced motion response of wild-type larvae; format: in vivo, Zebrafish (Danio rerio); details: for light-induced motion response (in vivo activity): 3 dpf wild-type larvae, 1 s flashes WL1-WL4
Protocol: A total of 1,000 compounds were selected from the ChemBridge Corp. catalog. Compounds were dissolved in DMSO at a stock concentration of 1 μg/μL (˜1.5 mM). The library was screened at a 1:100 dilution in E3 solution for a final concentration of ˜15 μM. Negative controls were treated with an equal volume of DMSO. Groups of 3 larvae at 3 days post fertilization (dpf) were distributed into the wells of 96-well clear bottom black microplates (07-200-567; Fisher Scientific) in 150 μL E3 before the addition of small molecules. Stock solutions of compounds were added directly to zebrafish in the wells of a 96 well plate (Corning 3631), mixed, and allowed to incubate for 1 h in the dark at 28.5° C. prior to behavioral evaluation in the behavioral assay. Ordering information: 1 (5533696; ChemBridge); 3 (5538408; ChemBridge).
Larvae in each of the wells were exposed to four 1 second flashes of light stimulus in the following order: 450-500 nm (WL1), 415-455 nm (WL2), 352-402 nm (WL3), white light (WL4), with a 5 second inter-stimulus interval. Digital video recording was performed for 5 seconds before the first light stimuli and continued throughout the stimulation sequence. Band pass filters (Semrock FF02-475/50, FF02-435/40, FF01-377/50) were used to restrict the excitation light to the indicated wavelengths. […] 290 frames of digital video were recorded per well at 10 FPS using an EMCCD camera (C9100; Hamamatsu) mounted on an inverted compound microscope (AxioObserver A1; Zeiss) with a NA 0.03 1.25× objective and a barrier with a 0.7 mm diameter opening to restrict light scattering to the sample. MetaMorph software (Molecular Devices) was used to control the execution of TTL signals and camera capture using the built-in stream acquisition with trigger function. Each video was saved for review. Light stimuli were generated with an ozone free 300-Watt xenon bulb housed in a Lambda LS illuminator (Sutter Instruments). A dichroic mirror (T510LPXRXT; Chroma) was used for appropriate excitation of samples and bright field acquisition. Schott longpass absorption glass (RG610; Chroma) was added in the transmitted light path to reduce unwanted excitation to the well and to provide sufficient light for video recording. All behavioral experiments were conducted at room temperature. […]
To analyze digital video recordings, custom MetaMorph software scripts were used to automatically threshold the video to identify the area of larvae in each frame. Threshold images of the frames after each light activation event were overlaid to calculate a new combined threshold area. The motion index was calculated as the percentage change between the threshold area in the frame right before light activation and the new combined threshold area. This motion index correlates with the overall amount of motion in the well.

[5] = tested on: Trpa1b; test: Heartbeat interruption in larvae expressing Trpa1b in cardiomyocytes; format: in vivo, zebrafish; details: 20 μM
Protocol: Heartbeat interruption experiments were performed in vivo on 2 dpf Tg(cm/c2:Trpa1b-2A-EGFP) larvae in a Trpa1b^−/− background. Larvae were pretreated with 20 μM of TRPswitch-A or TRPswitch-B in E3 at a final concentration of 1% DMSO for 1 h in the dark at 28.5° C. before experimental manipulation. Immediately prior to the onset of experiments, E3 solution was replaced with 0.2 mg/mL tricaine (Sigma, A5040) in E3 for anesthetizing the larvae. Violet light (352-402 nm) and green light (500-600 nm) were used for E to Z and Z to E isomerization, respectively. Violet and green light excitation were achieved using a band pass filter FF01-377/50 and an et500lp long pass barrier filter, respectively, together with a t600plxxr dichroic mirror and a 300-Watt xenon bulb light source (Sutter Instrument). Experiments were performed using a NA 0.6 40× air objective at room temperature. The zebrafish heart in the whole field of view was illuminated with 1 s violet light followed by various lengths of green light as indicated. Ventricle width measurement was performed using the ImageJ ‘measure’ function on the widest outer ventricle width every 100 ms.

[6] = UV-Vis absorbance, E/Z isomerization with violet and green light; format: physicochemical; details: UV-Vis absorbance in DMSO
Protocol: Compounds were dissolved in DMSO at 250 μM and 260 μM for TRPswitch-A and TRPswitch-B, respectively and UV-Vis absorbance was measured using a NanoDrop 1000 (Thermo Scientific).

[7] = Aqueous solubility observation; format: physicochemical
[8] = Z→E thermal isomerisation kinetics; format: physicochemical
Protocol: In order to determine the Z→E thermal isomerisation kinetics in DMSO-d6 a ˜20 mM solution of the relevant compound was irradiated using a Luzchem LZC-4V photoreactor fitted with 12×8 W LZC-420 lamps (420 nm peak emission) until no further change was observable by ^1H NMR. For 30% water:DMSO samples, a 15 μM solution of the relevant compound was irradiated in a quartz cuvette using 365 nm LEDs (3×800 mW Nichia NCSU276A) until no further change was observed by UV-Vis spectroscopy. Compounds (˜25 μM solutions in DMSO) were treated analogously. In the case of compounds studied by NMR, the change in Z-isomer percentage was followed as a function of time through integration of the relevant peaks. […]
For data collected via ^1H NMR, the natural log of the Z isomer concentration was plotted against time to yield a straight line implying first order kinetics. The gradient of this line was used to determine the rate constant for Z→E conversion from which the thermal half-life could be calculated:
For data collected via UV-Vis Spectroscopy, absorbance data at a fixed wavelength was fitted using the following, first order equation: […]
where k represents the rate constant; A∞, A0 and At are the absorbances of the pure E-state, Z-rich state, and time t, respectively. […]

[9] = UV-Vis spectroscopy in 30% water:DMSO, extrapolated pure Z spectrum, listed as TRPswitch-A

365 nm PSS [3] [% E]	420 nm PSS [3] [% E]	495 nm PSS [3] [% E]	SMILES	light-induced motion response (in vivo activity) [4]	further results
22	38	76	O=C(Nc1ccc(/N=N/c2ccccc2)c(NC(=O)c2cccs2)c1)c1cccs1 [Compound 3, (E)-N,N′-(4-(phenyldiazenyl)-1,3-phenylene)bis(thiophene-2-carboxamide)]	slightly lower photoresponse	–
47	32	61	N#Cc1ccc(/N=N/c2ccc(NC(=O)c3ccco3)cc2NC(=O)c2ccco2)cc1 [Compound 4, (E)-N,N′-(4-((4-cyanophenyl)diazenyl)-1,3-phenylene)bis(furan-2-carboxamide)]	far less active	–
69	46	70	O=C(Nc1ccc(/N=N/c2ccc([N+](=O)[O-])cc2)c(NC(=O)c2cccs2)c1)c1cccs1 [Compound 7, (E)-N,N′-(4-((4-nitrophenyl)diazenyl)-1,3-phenylene)bis(thiophene-2-carboxamide)]	far less active	–

Continued, compound first:

SMILES	365 nm PSS [3] [% E]	420 nm PSS [3] [% E]	495 nm PSS [3] [% E]	light-induced motion response (in vivo activity) [4]	further results
C=CCN=C=S [AITC, allyl isothiocyanate, reference compound]	–	–	–	–	response of human TRPA1 current [1]: responded; agonist-activated Trpa1b currents ([2]; positive control): activated currents
O=C(Nc1ccc(/N=N/c2ccccc2)c(NC(=O)c2ccco2)c1)c1ccco1 [Compound 1, (E)-N,N′-(4-(phenyldiazenyl)-1,3-phenylene)bis(furan-2-carboxamide)]	–	–	–	light-induced motion response across multiple wavelengths	365 nm PSS (E-Z) ([3]; 1H NMR in DMSO-d6): 79% Z; 420 nm PSS (E-Z) ([3]; 1H NMR in DMSO-d6): 53% Z; 495 nm PSS (Z-E) ([3]; 1H NMR in DMSO-d6): 71% E; Estimated 365 nm PSS (E-Z) [3, 9]: 86% Z; Estimated 495 nm PSS (Z-E) [3, 9]: 73% E; bandwidth with the most activity ([4]; light-induced motion response): 415-455 nm; ventricle heartbeat after 1 s violet light ([5]; 1 h pre-incubation): could be stopped; ventricular rhythm after 1 s green light ([5]; after violet light): re-stored; Trpa1b current upon violet light stimulation ([2]; 10 μM, compared to baseline): high amplitude currents; Trpa1b photocurrent upon subsequent green light stimulation ([2]; 10 μM, same cell): recovered to its baseline current magnitude; current density fold increment after subsequent pulse of green light ([2]; +100 mV): 1.15±0.17 fold; current density fold increment upon violet light illumination ([2]; +100 mV): 2.36±0.50 fold; current density fold increment after subsequent pulse of green light ([2]; −100 mV): 3.71±1.31 fold; current density fold increment upon violet light illumination ([2]; −100 mV): 4.35±1.44 fold; E/Z photoswitching with violet and green light [6]: incomplete
O=C(Nc1ccccc1/N=N/c1ccccc1)c1ccco1 [Compound 2, (E)-N-(2-(phenyldiazenyl)phenyl)furan-2-carboxamide]	13	56	79	reduced activity	–
N#Cc1ccc(/N=N/c2ccc(NC(=O)c3cccs3)cc2NC(=O)c2cccs2)cc1 [Compound 5, (E)-N,N′-(4-((4-cyanophenyl)diazenyl)-1,3-phenylene)bis(thiophene-2-carboxamide)]	41	30	61	far less active	–
O=C(Nc1ccc(/N=N/c2ccc([N+](=O)[O-])cc2)c(NC(=O)c2ccco2)c1)c1ccco1 [Compound 6, (E)-N,N′-(4-((4-nitrophenyl)diazenyl)-1,3-phenylene)bis(furan-2-carboxamide)]	66	42	64	far less active	–
Cc1nn(C)c(C)c1/N=N/c1ccc(NC(=O)c2ccco2)cc1NC(=O)c1ccco1 [Compound 8, (E)-N,N′-(4-((1,3,5-trimethyl-1H-pyrazol-4-yl)diazenyl)-1,3-phenylene)bis(furan-2-carboxamide)]	–	–	–	–	aqueous solubility [7]: some aqueous solubility issues; thermal half-lives [8]: long thermal half-lives; E/Z photoswitching with violet and green light [6]: quantitative photoswitching in both directions
